# In PMC8776995 (Frontiers in Chemistry, 2022):
# “And” between values parts separate entries of the source, which are not always exact repeats. Equal entries are not always repeated. Where two headings read alike, the source gives them in different places.
# Legend:
# A549 cells = test: CCK-8 antiproliferation assay, A549; details: given as fraction, Repeat 1-3; for Inhibitory efficacy: A549 cells; for inhibition at 1 µM / inhibition at 2 µM / inhibition at 4 µM / inhibition at 8 µM / inhibition at 16 µM: Homo sapiens, A549, read-out: Inhibitory efficacy, A549 cells
# H460 cells = test: CCK-8 antiproliferation assay, H460
# H1975 cells = test: CCK-8 antiproliferation assay, H1975; details: for Inhibitory efficacy: H1975 cells
# wild-type EGFR = wild-type EGFR (Homo sapiens, UniProt P00533); test: EGFR kinase assay (ELISA)
# Chain of wild-type EGFR (P00533 25-1210): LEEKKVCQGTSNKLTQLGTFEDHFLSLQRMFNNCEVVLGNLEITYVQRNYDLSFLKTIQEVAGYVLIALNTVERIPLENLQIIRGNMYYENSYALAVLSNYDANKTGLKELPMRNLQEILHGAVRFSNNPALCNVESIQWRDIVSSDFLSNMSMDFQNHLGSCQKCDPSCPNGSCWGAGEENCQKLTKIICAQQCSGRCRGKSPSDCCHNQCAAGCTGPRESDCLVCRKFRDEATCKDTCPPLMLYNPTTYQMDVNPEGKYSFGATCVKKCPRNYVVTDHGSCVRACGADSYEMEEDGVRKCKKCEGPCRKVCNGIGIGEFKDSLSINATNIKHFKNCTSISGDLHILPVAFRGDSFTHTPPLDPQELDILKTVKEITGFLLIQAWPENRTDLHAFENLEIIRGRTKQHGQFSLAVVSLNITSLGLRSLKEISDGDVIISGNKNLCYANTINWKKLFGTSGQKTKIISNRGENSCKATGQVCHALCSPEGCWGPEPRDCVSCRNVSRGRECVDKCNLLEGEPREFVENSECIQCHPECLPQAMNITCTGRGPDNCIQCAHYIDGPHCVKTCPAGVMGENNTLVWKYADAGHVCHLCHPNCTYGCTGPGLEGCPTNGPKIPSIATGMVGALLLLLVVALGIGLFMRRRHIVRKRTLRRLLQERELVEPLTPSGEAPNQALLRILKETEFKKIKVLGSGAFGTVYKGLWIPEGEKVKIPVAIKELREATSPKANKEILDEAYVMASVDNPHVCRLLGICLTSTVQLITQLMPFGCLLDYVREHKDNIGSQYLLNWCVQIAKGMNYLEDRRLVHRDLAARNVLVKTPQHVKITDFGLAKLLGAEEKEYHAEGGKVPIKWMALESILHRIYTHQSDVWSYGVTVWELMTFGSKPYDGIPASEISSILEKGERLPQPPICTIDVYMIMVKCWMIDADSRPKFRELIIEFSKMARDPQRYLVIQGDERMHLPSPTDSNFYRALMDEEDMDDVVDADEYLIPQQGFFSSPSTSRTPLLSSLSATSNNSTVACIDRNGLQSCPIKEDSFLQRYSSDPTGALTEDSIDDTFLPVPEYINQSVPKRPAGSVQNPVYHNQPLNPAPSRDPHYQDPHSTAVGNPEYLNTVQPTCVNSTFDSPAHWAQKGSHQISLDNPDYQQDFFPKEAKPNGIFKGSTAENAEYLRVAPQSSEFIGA
# PC-9 cells = test: CCK-8 antiproliferation assay, PC-9; details: for IC50: PC-9, 48 h, read-out: IC50 (μM) PC-9; for inhibition at 4 µM: PC-9, read-out: Inhibitory efficacy, PC-9, 4uM, single repeats (Repeat 1-3), given as fraction; for inhibition at 8 µM: PC-9, read-out: Inhibitory efficacy, PC-9, 8uM, single repeats (Repeat 1-3), given as fraction; for inhibition at 16 µM: PC-9, read-out: Inhibitory efficacy, PC-9, 16uM, single repeats (Repeat 1-3), given as fraction; for Inhibitory efficacy: single repeats (Repeat 1-3), given as fraction
# PC-9 xenograft = test: In vivo antitumor activity, PC-9 xenograft in NSG mice; parameters: species or system mouse
# Procedure: The mouse body mass was recorded as well.
# [1] = 4uM, given as fraction, Repeat 1-3
# [2] = 8uM, given as fraction, Repeat 1-3
# [3] = 16uM, given as fraction, Repeat 1-3
# [4] = Homo sapiens, NCI-H1975, read-out: Inhibitory efficacy, H1975 cells, 4uM, given as fraction, Repeat 1-3
# [5] = Homo sapiens, NCI-H1975, read-out: Inhibitory efficacy, H1975 cells, 8uM, given as fraction, Repeat 1-3
# [6] = Homo sapiens, NCI-H1975, read-out: Inhibitory efficacy, H1975 cells, 16uM, given as fraction, Repeat 1-3
structure (smiles),measurement,setting,value
"COCCOc1cc2ncnc(Nc3cccc(-c4cn(-c5ccccc5Br)nn4)c3)c2cc1OCCOC [e9, [6,7-Bis-(2-methoxy-ethoxy)-quinazolin-4-yl]-{3-[1-(2-bromo-phenyl)-1H-[1,2,3]triazol-4-yl]-phenyl}-amine]",Inhibitory efficacy,A549 cells; 1uM,0.1197 and 0.1367
same,Inhibitory efficacy,A549 cells; 2uM,0.3287 and 0.2555
same,Inhibitory efficacy,A549 cells; 4uM,0.8462 and 0.8405
same,Inhibitory efficacy,A549 cells; 8uM,0.9628 and 0.9656
same,Inhibitory efficacy,A549 cells; 16uM,0.9642 and 0.9671
same,inhibition at 1 µM,A549 cells; 1uM,16%
same,inhibition at 2 µM,A549 cells; 2uM,26.7%
same,inhibition at 4 µM,A549 cells; 4uM,82.8%
same,inhibition at 8 µM,A549 cells; 8uM,95.9%
same,inhibition at 16 µM,A549 cells; 16uM,96.6%
same,Inhibitory efficacy,"H460 cells; H460, 2uM, single repeats (Repeat 1-3), given as fraction, 2 µM",0.3746 and 0.3508
same,Inhibitory efficacy,"H460 cells; H460, 4uM, single repeats (Repeat 1-3), given as fraction, 4 µM",0.6113 and 0.6209
same,Inhibitory efficacy,"H460 cells; H460, 8uM, single repeats (Repeat 1-3), given as fraction, 8 µM",0.7678 and 0.7392
same,Inhibitory efficacy,"H460 cells; H460, 16uM, single repeats (Repeat 1-3), given as fraction, 16 µM",0.7559 and 0.7615
same,inhibition at 2 µM,"H460 cells; Homo sapiens, NCI-H460, read-out: Inhibitory efficacy, H460, 2uM, single repeats (Repeat 1-3), given as fraction",40.3%
same,inhibition at 4 µM,"H460 cells; Homo sapiens, NCI-H460, read-out: Inhibitory efficacy, H460, 4uM, single repeats (Repeat 1-3), given as fraction",72.6%
same,inhibition at 8 µM,"H460 cells; Homo sapiens, NCI-H460, read-out: Inhibitory efficacy, H460, 8uM, single repeats (Repeat 1-3), given as fraction",76.5%
same,inhibition at 16 µM,"H460 cells; Homo sapiens, NCI-H460, read-out: Inhibitory efficacy, H460, 16uM, single repeats (Repeat 1-3), given as fraction",77.3%
same,Inhibitory efficacy,"H1975 cells; 1uM, given as fraction, Repeat 1-3",0.171 and 0.2074
same,Inhibitory efficacy,H1975 cells; [1],0.4371 and 0.3791
same,Inhibitory efficacy,H1975 cells; [2],0.5337 and 0.5679
same,Inhibitory efficacy,H1975 cells; [3],0.6418 and 0.6475
same,IC50,"H1975 cells; Homo sapiens, NCI-H1975, 48 h, read-out: IC50 (μM) H1975, CCK-8, 48 h, average ± SD of three independent experiments",< 10 µM
same,inhibition at 1 µM,"H1975 cells; Homo sapiens, NCI-H1975, read-out: Inhibitory efficacy, H1975 cells, 1uM, given as fraction, Repeat 1-3",15.5%
same,inhibition at 4 µM,H1975 cells; [4],37.6%
same,inhibition at 8 µM,H1975 cells; [5],58%
same,inhibition at 16 µM,H1975 cells; [6],66.8%
same,IC50,"H1975 cells; read-out: IC50 (μM) H1975, CCK-8, 48 h, average ± SD of three independent experiments",6.86 ± 0.17 µM
same,inhibition at 0.0003 µM,"wild-type EGFR; 0.3 nM, duplicate wells, calculated from A450",0.816%
same,Inhibition,"wild-type EGFR; 0.3 nM, duplicate wells, calculated from A450, 0.0003 µM",0.7055
same,inhibition at 3 µM,"wild-type EGFR; 3000 nM, duplicate wells, calculated from A450",41.4%
same,Inhibition,"wild-type EGFR; 3000 nM, duplicate wells, calculated from A450, 3 µM",44.4444
same,inhibition at 30 µM,"wild-type EGFR; 30000 nM, duplicate wells, calculated from A450",89.8%
same,Inhibition,"wild-type EGFR; 30000 nM, duplicate wells, calculated from A450, 30 µM",89.9471
same,IC50,"wild-type EGFR; IC50 (μM) EGFR, ELISA, 3 μmol/L ATP",3.83 µM
same,melting point,,93 to 97 °C
same,IC50,PC-9 cells; Homo sapiens,7.63 ± 1.69 µM
same,inhibition at 4 µM,PC-9 cells; Homo sapiens,42.1%
same,inhibition at 8 µM,PC-9 cells; Homo sapiens,57.9%
same,inhibition at 16 µM,PC-9 cells; Homo sapiens,54.2%
same,Inhibitory efficacy,"PC-9 cells; PC-9, 4uM, 4 µM",0.4231 and 0.428
same,Inhibitory efficacy,"PC-9 cells; PC-9, 8uM, 8 µM",0.5458 and 0.6686
same,Inhibitory efficacy,"PC-9 cells; PC-9, 16uM, 16 µM",0.5655 and 0.5078
"C#Cc1cccc(Nc2ncnc3cc(OCCOC)c(OCCOC)cc23)c1 [Erlotinib, reference compound]",Inhibitory efficacy,A549 cells; 1uM,0.1312 and 0.1478
same,Inhibitory efficacy,A549 cells; 2uM,0.2342 and 0.2336
same,Inhibitory efficacy,A549 cells; 4uM,0.4482 and 0.3384
same,Inhibitory efficacy,A549 cells; 8uM,0.471 and 0.4975
same,Inhibitory efficacy,A549 cells; 16uM,0.5265 and 0.5389
same,inhibition at 1 µM,A549 cells; 1uM,22.3%
same,inhibition at 2 µM,A549 cells; 2uM,25.5%
same,inhibition at 4 µM,A549 cells; 4uM,39%
same,inhibition at 8 µM,A549 cells; 8uM,47.8%
same,inhibition at 16 µM,A549 cells; 16uM,56%
same,Inhibitory efficacy,"H460 cells; H460 cells, 1uM, given as fraction, Repeat 1-3",0.09689 and 0.1206
same,Inhibitory efficacy,"H460 cells; H460 cells, 2uM, given as fraction, Repeat 1-3",0.2063 and 0.1995
same,Inhibitory efficacy,"H460 cells; H460 cells, 4uM, given as fraction, Repeat 1-3",0.3477 and 0.3746
same,Inhibitory efficacy,"H460 cells; H460 cells, 8uM, given as fraction, Repeat 1-3",0.4407 and 0.5067
same,Inhibitory efficacy,"H460 cells; H460 cells, 16uM, given as fraction, Repeat 1-3",0.4651 and 0.4816
same,IC50,"H460 cells; Homo sapiens, NCI-H460, 48 h, read-out: IC50 (μM) H460",13.3 ± 1.5 µM
same,inhibition at 1 µM,"H460 cells; Homo sapiens, NCI-H460, read-out: Inhibitory efficacy, H460 cells, 1uM, given as fraction, Repeat 1-3",6.64%
same,inhibition at 2 µM,"H460 cells; Homo sapiens, NCI-H460, read-out: Inhibitory efficacy, H460 cells, 2uM, given as fraction, Repeat 1-3",14.3%
same,inhibition at 4 µM,"H460 cells; Homo sapiens, NCI-H460, read-out: Inhibitory efficacy, H460 cells, 4uM, given as fraction, Repeat 1-3",30%
same,inhibition at 8 µM,"H460 cells; Homo sapiens, NCI-H460, read-out: Inhibitory efficacy, H460 cells, 8uM, given as fraction, Repeat 1-3",47.8%
same,inhibition at 16 µM,"H460 cells; Homo sapiens, NCI-H460, read-out: Inhibitory efficacy, H460 cells, 16uM, given as fraction, Repeat 1-3",47.2%
same,Inhibitory efficacy,"H1975 cells; 2uM, given as fraction, Repeat 1-3",0.1989 and 0.1819
same,Inhibitory efficacy,H1975 cells; [1],0.3103 and 0.3631
same,Inhibitory efficacy,H1975 cells; [2],0.4556 and 0.4424
same,Inhibitory efficacy,H1975 cells; [3],0.4821 and 0.5651
same,IC50,"H1975 cells; Homo sapiens, NCI-H1975, 48 h, read-out: IC50 (μM) H1975",12.7 ± 2.76 µM
same,inhibition at 2 µM,"H1975 cells; Homo sapiens, NCI-H1975, read-out: Inhibitory efficacy, H1975 cells, 2uM, given as fraction, Repeat 1-3",20.1%
same,inhibition at 4 µM,H1975 cells; [4],30.1%
same,inhibition at 8 µM,H1975 cells; [5],42.2%
same,inhibition at 16 µM,H1975 cells; [6],55.9%
same,tumor volume mean,"PC-9 xenograft; Day13, group mean",75.6221 mm3
same,tumor length,"PC-9 xenograft; Day13, individual animals",5.32 mm and 6.15 mm and 5.63 mm and 5.6 mm and 6.4 mm and 5.64 mm and 7.11 mm
same,tumor volume,"PC-9 xenograft; Day13, individual animals",68.645 mm3 and 111.069 mm3 and 86.3969 mm3 and 32.368 mm3 and 70.688 mm3 and 54.5952 mm3 and 105.592 mm3
same,tumor width,"PC-9 xenograft; Day13, individual animals",5.08 mm and 6.01 mm and 5.54 mm and 3.4 mm and 4.7 mm and 4.4 mm and 5.45 mm
same,tumor volume mean,"PC-9 xenograft; Day15, group mean",46.9389 mm3
same,tumor length,"PC-9 xenograft; Day15, individual animals",5.43 mm and 5.76 mm and 4.04 mm and 4.28 mm and 5.96 mm and 6.09 mm and 6.46 mm
same,tumor volume,"PC-9 xenograft; Day15, individual animals",23.7877 mm3 and 44.4813 mm3 and 30.5668 mm3 and 38.11 mm3 and 66.1086 mm3 and 70.1568 mm3 and 55.3609 mm3
same,tumor width,"PC-9 xenograft; Day15, individual animals",2.96 mm and 3.93 mm and 3.89 mm and 4.22 mm and 4.71 mm and 4.8 mm and 4.14 mm
same,tumor volume mean,"PC-9 xenograft; Day17, group mean",35.7998 mm3
same,tumor length,"PC-9 xenograft; Day17, individual animals",4.34 mm and 4.5 mm and 4.68 mm and 3.6 mm and 3.5 mm and 5.64 mm and 5.39 mm
same,tumor volume,"PC-9 xenograft; Day17, individual animals",40.4974 mm3 and 44.957 mm3 and 28.665 mm3 and 15.138 mm3 and 14.7175 mm3 and 67.7082 mm3 and 38.9158 mm3
same,tumor width,"PC-9 xenograft; Day17, individual animals",4.32 mm and 4.47 mm and 3.5 mm and 2.9 mm and 4.9 mm and 3.8 mm
same,tumor volume mean,"PC-9 xenograft; Day19, group mean",14.0038 mm3
same,tumor length,"PC-9 xenograft; Day19, individual animals",2.66 mm and 3.12 mm and 2.47 mm and 0 mm and 3.83 mm and 4.36 mm and 4.91 mm
same,tumor volume,"PC-9 xenograft; Day19, individual animals",8.246 mm3 and 6.24 mm3 and 5.446 mm3 and 0 mm3 and 21.1079 mm3 and 22.4629 mm3 and 34.5234 mm3
same,tumor width,"PC-9 xenograft; Day19, individual animals",2.49 mm and 2 mm and 2.1 mm and 0 mm and 3.32 mm and 3.21 mm and 3.75 mm
same,IC50,PC-9 cells; Homo sapiens,0.21 ± 0.07 µM
same,inhibition at 1 µM,"PC-9 cells; Homo sapiens, PC-9, read-out: Inhibitory efficacy, PC-9, 1uM, single repeats (Repeat 1-3), given as fraction",60.2%
same,inhibition at 2 µM,"PC-9 cells; Homo sapiens, PC-9, read-out: Inhibitory efficacy, PC-9, 2uM, single repeats (Repeat 1-3), given as fraction",62.2%
same,inhibition at 4 µM,PC-9 cells; Homo sapiens,73.2%
same,inhibition at 8 µM,PC-9 cells; Homo sapiens,72.2%
same,inhibition at 16 µM,PC-9 cells; Homo sapiens,77.6%
same,Inhibitory efficacy,"PC-9 cells; PC-9, 1uM, 1 µM",0.6098 and 0.6255
same,Inhibitory efficacy,"PC-9 cells; PC-9, 2uM, 2 µM",0.6294 and 0.6255
same,Inhibitory efficacy,"PC-9 cells; PC-9, 4uM, 4 µM",0.6922 and 0.7284
same,Inhibitory efficacy,"PC-9 cells; PC-9, 8uM, 8 µM",0.7167 and 0.7137
same,Inhibitory efficacy,"PC-9 cells; PC-9, 16uM, 16 µM",0.7578 and 0.7647
COCCOc1cc2ncnc(Nc3cccc(-c4cn(Cc5cccc(OC)c5)nn4)c3)c2cc1OCCOC [e5],melting point,,85 to 88 °C
